Laboratory results as given in patent US7741124B2, “Detection procedures for fibrinogen and/or fibrinogen derivatives” (priority 2003, dated 2010).
Like-named read-outs stand apart in the source and are kept apart here.

Columns and labels:
Format in all cases: biochemical
fibrinogen [1] = assay: FIATA (vancomycin reactivity) of chloramine-T oxidized / EDTA-supplemented plasma; conditions: EDTA at concentrations of 50-100 mM
Protocol: To 25 μl plasma 50 μl PBS are added and the absorbance (405 nm) is determined (base value). Then 50 μl 4.4 mM vancomycin in PBS are added. The absorbance at 405 nm is determined after 2 min, if the reaction is performed at room temperature (23° C.). If the reaction is performed at 37° C., the second value is determined after 1 min. A microtiterplate reader (Milenia, DPC, Los Angeles, USA) is used. The increase in absorption (ΔA) is determined and the results are standardized against a pooled plasma of known, preferably of 100% of norm, fibrinogen-concentration, and against 0.9% NaCl (zero-value of turbidity) (Table 2).
(§1) 25 μl P-Pool or P-Pool supplemented with 8.6 mM (3.2 g/l) EDTA were incubated with 25 μl 0-89 mM chloramine-T® in PBS for 60 min at RT. Then the FIATA and the FIFTA were performed. For the FIATA, 25 μl PBS were added and the absorbance at 405 nm was determined (base value). 50 μl 4.4 mM vancomycin in PBS were added and after 1 min (RT) the absorbance at 405 nm was determined again (Table 1). […] 100% control=P-Pool without oxidant.
(§2) 25 μl P-Pool was incubated with 25 μl PBS or with 25 μl 2 mM CT in PBS. After 60 min RT, 25 μl 0-172 mM EDTA in PBS was added. After 5 min RT the FIATA and the FIFTA were performed as indicated in 2.7.

fibrinogen [2] = target: T1, fibrinogen (Homo sapiens, UniProt P02671+P02675+P02679); assay: FIFTA of chloramine-T oxidized / EDTA-supplemented plasma
T1 construct: pooled patient plasma (P-Pool, n=32 single plasmas); from tissue; host or cells: pooled citrated patient plasma (P-Pool, Fbgen-Pool-Plasma)
T1 sequence (P02671 20-644 isoform P02671-2 limits assumed): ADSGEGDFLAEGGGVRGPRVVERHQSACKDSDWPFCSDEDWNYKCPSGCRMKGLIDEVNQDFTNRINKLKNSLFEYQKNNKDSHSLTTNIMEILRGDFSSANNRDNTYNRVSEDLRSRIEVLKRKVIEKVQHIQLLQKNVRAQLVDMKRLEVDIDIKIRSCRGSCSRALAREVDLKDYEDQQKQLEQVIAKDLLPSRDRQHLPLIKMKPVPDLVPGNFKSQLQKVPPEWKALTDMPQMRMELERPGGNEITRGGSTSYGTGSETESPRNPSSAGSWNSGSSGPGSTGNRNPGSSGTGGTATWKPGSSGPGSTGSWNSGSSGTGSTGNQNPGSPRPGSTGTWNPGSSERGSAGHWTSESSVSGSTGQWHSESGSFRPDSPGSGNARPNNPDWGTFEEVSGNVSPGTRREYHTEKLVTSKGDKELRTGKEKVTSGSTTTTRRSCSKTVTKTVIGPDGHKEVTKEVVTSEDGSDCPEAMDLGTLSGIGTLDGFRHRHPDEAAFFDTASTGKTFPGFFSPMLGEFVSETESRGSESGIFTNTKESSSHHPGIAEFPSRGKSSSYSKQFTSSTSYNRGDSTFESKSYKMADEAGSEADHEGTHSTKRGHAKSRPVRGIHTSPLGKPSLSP
T1 sequence (P02675 31-491): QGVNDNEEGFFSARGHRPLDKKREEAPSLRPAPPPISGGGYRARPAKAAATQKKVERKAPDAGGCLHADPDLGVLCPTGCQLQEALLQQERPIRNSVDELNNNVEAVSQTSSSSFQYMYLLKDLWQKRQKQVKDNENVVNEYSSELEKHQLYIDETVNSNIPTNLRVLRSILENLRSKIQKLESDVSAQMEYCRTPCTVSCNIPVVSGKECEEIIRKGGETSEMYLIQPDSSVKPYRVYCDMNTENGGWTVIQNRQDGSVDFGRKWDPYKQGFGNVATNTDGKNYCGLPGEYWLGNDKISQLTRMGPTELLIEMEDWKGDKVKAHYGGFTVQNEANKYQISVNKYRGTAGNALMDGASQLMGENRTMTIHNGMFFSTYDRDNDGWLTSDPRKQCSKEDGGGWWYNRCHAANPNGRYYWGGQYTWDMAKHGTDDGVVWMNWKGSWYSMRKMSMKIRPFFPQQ
T1 sequence (P02679 27-437 isoform P02679-2 limits assumed): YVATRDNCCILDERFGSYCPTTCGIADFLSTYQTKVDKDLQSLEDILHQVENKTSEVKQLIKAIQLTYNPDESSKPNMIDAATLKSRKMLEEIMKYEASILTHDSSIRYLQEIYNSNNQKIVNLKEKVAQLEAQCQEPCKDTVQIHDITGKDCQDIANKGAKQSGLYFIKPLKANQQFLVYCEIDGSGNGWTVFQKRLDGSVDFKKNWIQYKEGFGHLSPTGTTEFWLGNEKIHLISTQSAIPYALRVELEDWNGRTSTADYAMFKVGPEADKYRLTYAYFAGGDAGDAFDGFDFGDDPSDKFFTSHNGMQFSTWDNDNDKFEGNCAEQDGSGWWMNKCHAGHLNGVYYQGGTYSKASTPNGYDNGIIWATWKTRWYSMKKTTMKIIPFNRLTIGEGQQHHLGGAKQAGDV
Protocol: The absorption at 405 nm is immediately measured (base value) and exactly after 5 min, if the reaction is performed at room temperature (23° C.). If the reaction is performed at 37° C., the second value is measured after 2 min. A microtiterplate reader (Milenia, DPC, Los Angeles, USA) is used. The increase in absorption (ΔA) is determined and the results are standardized against a pooled plasma of known, preferably of 100% of norm, fibrinogen-activity (Table 1).
as §1, §2

heparin = assay: Neutralization of heparin in plasma by Polybrene in the FIFTA
Protocol: P-Pool supplemented with 0-80 IU/ml heparin was analyzed in the FIFTA. The FIFTA-reagent contained 200 mIU/ml thrombin, 6% BSA-PBS and 0, 50, 100, 200, 400, 800, or 1600 μg/ml Polybrene® (PB, hexadimethrinebromide).
25 μl 0-75 mg/ml Polybrene® in aqua dest. were added to 50 μl P-Pool or to 50 μl P-Pool, that had been supplemented with 100 IU/ml heparin. Then 100 μl 200 miU/ml thrombin in 6% BSA-PBS, 400 μg/ml PB were added and the increase in absorbance at 405 nm was determined.
50 μl P-Pool with 0-80 IU/ml heparin were incubated with 100 μl FIFTA-reagent without thrombin, that contained 0, 400, 800, or 1600 μg/ml PB. The increase in absorbance at 405 nm was determined.

thrombin = target: T2, thrombin (Bos taurus, UniProt P00735); assay: Inhibitory time point 50% (ITP50) of 10 IU/ml heparin-thrombin interaction; conditions: 133 mIU/ml thrombin, RT
T2 construct: 100 μl 200 mIU/ml thrombin in 6% BSA-PBS (without Polybrene®)
Protocol: 50 μl P-Pool were incubated with 100 μl 200 miU/ml thrombin in 6% BSA-PBS (without Polybrene®). At 0 min (prior to thrombin addition) and 0.5-11 min reaction time (at RT) 10 μl 160 IU/ml heparin in 6% BSA-PBS was added (final heparin conc. in plasma+thrombin reagent=10 IU/ml; this heparin conc. increased the absorbance by 20 mA; all test results were corrected by this heparin induced turbidity increase). The turbidity increase at 405 nm was determined immediately after each heparin addition step and as a function of incubation time.
To determine the heparin addition time point (at RT) that is needed to decrease the 5 min, 10 min, 15 min or 20 min turbidity increase by 50% (inhibitory time point 50%=ITP), 50 μl P-Pool were incubated with 100 μl 200 mIU/ml thrombin in 6% BSA-PBS (without Polybrene®). After 0 s (prior to thrombin addition) and 10-140 s (in 10 s intervals) 10 μl 160 IU/ml heparin in 6% BSA-PBS were added. The turbidity increase at 405 nm as a function of incubation time (3-20 min) was determined.

fibrin = target: T3, fibrin (Homo sapiens, UniProt P02671+P02675+P02679); assay: Fibrin dissolution by arginine
T3 construct: The FIFTA imitates the physiological conversion of fibrinogen to fibrin; from tissue; host or cells: pooled citrated patient plasma (P-Pool), clotted in the well with thrombin reagent for 30 min
T3 sequence (P02671 36-629 limits assumed): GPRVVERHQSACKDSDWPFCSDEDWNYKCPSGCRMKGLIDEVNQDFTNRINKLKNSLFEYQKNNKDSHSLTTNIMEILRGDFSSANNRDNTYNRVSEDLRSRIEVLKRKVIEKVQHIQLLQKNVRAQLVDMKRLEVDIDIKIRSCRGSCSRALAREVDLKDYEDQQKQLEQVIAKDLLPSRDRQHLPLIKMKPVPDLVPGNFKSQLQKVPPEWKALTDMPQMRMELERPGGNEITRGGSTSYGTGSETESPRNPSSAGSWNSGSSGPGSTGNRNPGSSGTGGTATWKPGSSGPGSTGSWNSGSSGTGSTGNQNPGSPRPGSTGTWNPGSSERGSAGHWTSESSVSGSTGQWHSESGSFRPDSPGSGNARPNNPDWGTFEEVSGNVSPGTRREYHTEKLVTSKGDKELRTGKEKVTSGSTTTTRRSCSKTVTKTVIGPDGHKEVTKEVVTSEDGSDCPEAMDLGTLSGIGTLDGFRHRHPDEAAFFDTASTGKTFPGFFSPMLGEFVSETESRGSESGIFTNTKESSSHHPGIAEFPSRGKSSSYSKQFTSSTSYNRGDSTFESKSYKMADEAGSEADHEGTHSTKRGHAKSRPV
T3 sequence (P02675 45-491 limits assumed): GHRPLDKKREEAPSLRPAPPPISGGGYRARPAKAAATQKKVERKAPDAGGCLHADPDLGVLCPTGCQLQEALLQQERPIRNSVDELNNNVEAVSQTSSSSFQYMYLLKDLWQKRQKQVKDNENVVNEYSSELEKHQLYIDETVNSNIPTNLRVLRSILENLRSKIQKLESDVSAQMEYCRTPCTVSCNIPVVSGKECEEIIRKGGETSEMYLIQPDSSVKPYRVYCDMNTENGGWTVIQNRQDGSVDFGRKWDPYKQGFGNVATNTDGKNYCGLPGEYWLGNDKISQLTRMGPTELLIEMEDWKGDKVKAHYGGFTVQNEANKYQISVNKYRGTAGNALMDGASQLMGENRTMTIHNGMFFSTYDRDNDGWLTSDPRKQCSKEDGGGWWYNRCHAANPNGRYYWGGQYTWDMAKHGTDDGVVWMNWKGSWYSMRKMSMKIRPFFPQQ
T3 sequence (P02679 27-437 isoform P02679-2 limits assumed): T1 sequence (P02679 27-437 isoform P02679-2 limits assumed)
Protocol: 50 μl P-Pool were incubated with 100 μl FIFTA-reagent.

[3] = system: thrombin/fibrinogen interaction; assay: Inhibition of fibrin generation by arginine (FIFTA turbidity); conditions: for IC50: read-out: arginine conc. at halfmaximal turbidity increase
Protocol: The turbidity increase was calculated by subtracting the basal absorbance from the absorbance generated by thrombin (addition of 100 μl FIFTA-reagent without thrombin results into an approximate increase of absorbance of 100 mA compared to the absorbance of 50 μl sample). c) 50 μl P-Pool were incubated with 100 μl FIFTA-reagent.

Question: With `O=C(O)CN(CCN(CC(=O)O)CC(=O)O)CC(=O)O` [EDTA] as the molecule, how does the “decrease of FIATA result” value (fibrinogen [1]) read?
Answer: 10-20%

Question: What about the “decrease of FIFTA activity” value (fibrinogen [2]; EDTA at concentrations >5 mmol/l, 0 mM or 2 mM oxidized samples) of the same molecule?
Answer: about 50%

Question: What about the FIFTA decrease (fibrinogen [2]; addition of 8.6 mM EDTA, independent of oxidant concentration) of the same molecule?
Answer: about 50%

Question: Which “plasmatic heparin concentration neutralized” value (heparin; 400 μg/ml Polybrene in FIFTA-reagent) does the source give for hexadimethrinebromide [Polybrene®] here?
Answer: up to 20 IU/ml

Question: What about the “PB needed for neutralization of 1 part of 100 IU/ml heparinized plasma” value (heparin; 1 part PB, includes 400 μg/ml PB of FIFTA-reagent) of the same molecule?
Answer: 26 mg/mL

Question: What about the “PB concentration that completely antagonizes 100 IU/ml heparin” value (heparin; 25 μl PB added to 50 μl plasma) of the same molecule?
Answer: ≥ 50 mg/mL

Question: For thrombin, which “time in which about 50% of plasmatic fibrinogen is converted” value (thrombin) is on record?
Answer: approximately 30 seconds

Question: Which “time to halfmaximal decrease of ΔA” value (fibrin; 477 mM arginine added at 12 min or 30 min reaction time point, RT) does the source give for `N=C(N)NCCC[C@H](N)C(=O)O` [arginine] here?
Answer: 30 min

Question: And the “maximal ΔA that remains refractory to clearing” value (fibrin; arginine incubation >100 min)?
Answer: about 30%

Question: And the “increase of the turbidity increase” value ([3]; 16 mM arginine)?
Answer: about 20%

Question: What about the “final arginine conc. that completely inhibits turbidity increase” value ([3]; arginine acts in the first 4 min (RT) of thrombin/fibrinogen interaction) of the same molecule?
Answer: ≥ 250 mM

Question: What about the “time window in which arginine can inhibit turbidity increase” value ([3]; final arginine conc. ≧250 mM, RT (FIG. 16d)) of the same molecule?
Answer: ≤ 3 min

Question: What about the IC50 ([3]; added at the 7 min reaction time point) of the same molecule?
Answer: 94 mM

Question: And the IC50 ([3]; arginine acts since the begin of thrombin action)?
Answer: 62.5 mM
